Ends that are not written are not given here.
How the values were obtained:
[1] = test system: PBMC from chronic Chagas disease subjects; assay: IFN-γ ELISPOT with supertype peptide pools, single peptides or lysate in non-HLA-typed G0 subjects; format: cell-based, human; details: single peptides 10 µg/ml, representative results from single individuals, media alone subtracted (media alone 13±10)
Protocol: The number of peptide-specific IFN-γ and IL-2-secreting T cells was determined by ex vivo ELISPOT using commercial kits (Becton & Dickinson, San Diego, CA). Cryopreserved PBMC from chronic chagasic subjects were seeded in triplicate wells at a concentration of 4×10^5/well, and stimulated with individual peptides (10 µg/ml), peptide pools (7–13 peptides per pool, 5 µg/ml/peptide) comprising HLA A01 (2 pools), A02 (2 pools), A03 (2 pools), A24 (2 pools), B07 (1 pool) or B44 (1 pool)-binding peptides or T. cruzi lysate (10 µg/ml) for 16–20 hr at 37°C and 5% CO2. For controls, cells were incubated with complete RPMI, A2-restricted HIV Pol (amino acids 510–518: […]), A2-restricted flu matrix 1 (amino acids 58–66: […]) or 50 ng/ml […] and 500 nM ionomicin (Sigma). Spot forming cells (SFCs) were automatically enumerated using ImmunoSpot analyzer (CTL).
The mean number of SFCs in triplicate wells was obtained for each condition, and the number of specific IFN-γ and IL-2-secreting T cells (net SFCs), was calculated by subtracting the value of the wells containing media alone from the peptide/mitogen-stimulated spot count. Responses were considered significant if a minimum of 25 SFCs/1×10^6 PBMC were present per well, and additionally, this number was at least twice the value of wells with media alone.
The number of annotated T. cruzi genes containing supertype-binding epitopes was then used to prioritize peptides to be assessed for recognition by CD8^+ T cells from a group of non-HLA-typed chagasic subjects (Table 2). IFN-γ ELISPOT responses to peptide pools containing a total of ninety-six epitopes representing HLA A01 (18 epitopes), HLA A02 (20 epitopes), HLA A03 (20 epitopes), HLA A24 (14 epitopes), HLA B07 (11 epitopes) and HLA-B44 (13 epitopes) supertypes were evaluated in 25 chronic Chagas disease subjects without clinical and radiological evidence of heart disease (G0 status) regardless of their HLA type. […] Four subjects had positive responses to more than one supertype (3 of these subjects recognized both HLA-A02 and HLA-A03-binding peptides, Fig. 1). It is noteworthy that responses to HLA-A02 and HLA03 supertype-restricted epitopes covered 77% of the total responses detected, consistent with the high worldwide frequency of these alleles.

HLA-A2.1 molecule = HLA-A2.1 molecule (Homo sapiens, UniProt P04439, D140Y/D185E/D98H/E176V/E277Q/G131W/G231S/I119V/I121R/I166T/I218V/L300P/L318F/N151K/N90K/P208A/P217A/Q86G/Q94H/R138H/R169H/T345S); assay: HLA-A class I binding assay (competitive inhibition of radiolabeled probe peptide); details: competitive inhibition of binding of radiolabeled standard probe peptide to purified detergent-solubilized HLA-A2.1
[2] = test system: PBMC from HLA-A2.1+ patients with chronic Chagas disease; assay: IFN-γ ELISPOT with individual HLA-A0201-binding ts peptides in HLA-A2.1+ subjects; format: cell-based, human; details: 16–20 hr

| Sequence | No. Net IFN-γ SFCs/10^6 PBMC [1] [SFCs/10^6 PBMC] | IC50 (HLA-A2.1 molecule) [nM] | also measured |
| --- | --- | --- | --- |
| IYMLVGKYS | 65 | – | – |
| FANHKFTLV [Ts 38] | – | 148 | – |
| VALMLQGNK | 18 | – | – |
| LLLLVVMMCC | 18 | – | – |
| FVSCDFTIV [Ts 35] | – | 30 | – |
| SLSHYFTLVF [Ts 26] | – | 1.6 | – |
| FANYNFTLV [Ts 48] | – | 0.47 | – |
| VTDNNRSFY | 30 | – | – |
| RVSRPTTVV [Ts 58] | – | 2490 | – |
| FLYNRPLNS | 18 | – | – |
| RVLLLLLLGL | 20 | – | – |
| FANYKFTLV [Ts 44] | – | 49 | – |
| FTNNKFTLS [Ts 68] | – | > 50000 | No. of positive responders/total no. of subjects assayed (%), G0 ([2]; HLA-A2.1+ patients group G0, peptide 10 µg/ml, 4×10^5 PBMC/well, positive: >=25 SFCs/10^6 PBMC and at least twice media alone): 0/6; No. of positive responders/total no. of subjects assayed (%), G1 ([2]; HLA-A2.1+ patients group G1, peptide 10 µg/ml): 0/5; No. of positive responders/total no. of subjects assayed (%), G2/G3 ([2]; HLA-A2.1+ patients group G2/G3, peptide 10 µg/ml): 0/8 |
| FTLVATVSI | 70 | – | – |
| TSAVLLLLVV | 18 | – | – |
| RLLPSLLLLL [Ts 4] | – | 0.8 | – |
| FANYNFTLL [Ts 51] | – | 1500 | – |
| ITATIEGRK | 50 | – | – |
| LLGLWGLATA [Ts 6] | – | 24 | – |
| MLSRVAAVK | 38 | – | – |
| NVMLVTLPV | 18 | – | – |
| AVAEAQCKK | 18 | – | – |

| Sequence | No. Net IFN-γ SFCs/10^6 PBMC [1] [SFCs/10^6 PBMC] | IC50 (HLA-A2.1 molecule) [nM] | also measured |
| --- | --- | --- | --- |
| LWLTDNTHI | 463 | – | – |
| HNFTLVASV | 15 | – | – |
| FVDYNFSLV [Ts 47] | – | 1.1 | – |
| LLGLWGTAAL [Ts 13] | – | 499 | – |
| FQGAWAEWPV | 32 | – | – |
| IANYNFTLV [Ts 56] | – | 29600 | – |
| LLLGLWGFA | 30 | – | – |
| HLFYSAVLL | 40 | – | – |
| MLVTLPVYS | 15 | – | – |
| FTLVASVTI | 35 | – | – |
| FVSPSLVSA | 18 | – | – |
| GLLPSLLLLL [Ts 3] | – | 3.1 | – |
| FANNKFTLV [Ts 43] | – | 116 | – |
| FANHDFTLV [Ts 34] | – | 101 | – |
| LVTLPVYSK | 15 | – | – |
| FLSHNFTLVF [Ts 27] | – | 0.61 | – |
| ELLRPTTLV [Ts 52] | – | 2410 | – |
| FLSHDFTLV [Ts 24] | – | 0.46 | – |
| LLGLWVFAAL [Ts 2] | – | 36 | – |
| FVNHRFTLV [Ts 37] | – | 304 | – |
| FTSAVLLLL | 25 | – | – |
| FVNYNFTLV [Ts 45] | – | 0.25 | – |

From publication PMC2565697, “HLA Class I-T Cell Epitopes from trans-Sialidase Proteins Reveal Functionally Distinct Subsets of CD8^+ T Cells in Chronic Chagas Disease” (PLoS Neglected Tropical Diseases, 2008)
